Patent US20190343817A1, “METHOD OF TREATING PAIN” (VERTEX PHARMACEUTICALS INCORPORATED, priority 2018, published 2019)

Assays:
[1] = test system: subjects with pain following bunionectomy; assay: Safety evaluations in the bunionectomy study (adverse events)
Excerpt: Safety evaluations included adverse events, clinical laboratory assessments, clinical evaluation of vital signs, electrocardiograms, and physical examinations.

[2] = test system: patients with chronic pain caused by small fiber neuropathy; assay: Efficacy of Compound 1 for pain caused by small fiber neuropathy (randomized, double-blind, placebo-controlled, 6-week study); type: in vivo, human
Method: A randomized, double-blind, placebo-controlled, 6-week study that evaluated treatment with Compound 1 (Treatment Arm) or placebo (Placebo Arm) in patients with chronic pain caused by small fiber neuropathy was conducted.
Males and females between the ages of 18 and 80 years, inclusive, with small fiber neuropathy.
Compound 1 was administered orally in 250 mg capsules, prepared as described in Example 2.
The study included a 7-day run-in period, followed a 6-week treatment period. The subjects were randomized to a Placebo Arm (43 subjects) and a Treatment Arm (46 subjects) between the run-in period and the treatment period.
During the run-in period, subjects reported their average pain and sleep interference to establish a baseline NRS pain score and DSIS score.
During the treatment period, Compound 1 was administered to the subjects in the Treatment Arm every 24 hours (q24 h) in a dose of 1250 mg. Subjects in the Placebo Arm received placebo capsules.
Pain intensity was evaluated using an 11-point NRS. The 11-point scale ranged from 0 (no pain) to 10 (worst imaginable pain). From Day −7 through Week 6, subjects reported their average daily pain during the last 24 hours on the NRS via electronic diary.
Subjects reported pain interference with sleep using an 11-point scale ranging from 0 (none) to 10 (severe). The DSIS score was reported each morning in an electronic diary.
Subjects' impressions of their overall health status were reported on a 7-point scale from 1 (very much improved) to 7 (very much worse) at study visits.
NRS pain scores were averaged over weekly periods to reduce the impact on the analyses of individual high or low pain scores. The mean change from baseline in the weekly average of daily pain intensity on the 11-point NRS over the course of the treatment period for subjects in the Placebo and Treatment Arms is depicted graphically in FIG. 3. The mean change from baseline for those treated with Compound 1 compared to placebo was −1.09 (95% CI: −1.88 to −0.29) at Week 6.
The number and percentage of subjects with ≥30% and ≥50% reduction in the weekly average of daily pain intensity on the 11-point NRS at Week 6 is reported in Table 9. The total number of subjects for determining the percentage was based on subjects who had data at Week 6.
The total number of subjects for determining the percentage was based on subjects who had data at Week 6.

[3] = test system: subjects with pain following bunionectomy; assay: Efficacy of Compound 1 in subjects with pain following bunionectomy (randomized, double-blind, placebo-controlled, 3-arm study); type: in vivo, human
Method: A randomized, double-blind, placebo-controlled, 3-arm, parallel-design study to evaluate the effect of Compound 1 on acute surgical pain was conducted. Bunionectomy is a well-established, multi-dose, surgical, acute pain model. A randomized, double-blind study design was selected to avoid observer bias and reduce symptoms or outcomes arising from the subjects' knowledge of treatment. A parallel design was considered most appropriate given the acute nature of bunionectomy surgery.
Male and female patients between the ages of 18 and 65 years (inclusive) with pain that is ≥4 on an 11-point Numeric Pain Rating Scale (NPRS) and is moderate or severe on the Verbal Categorical Rating Scale (VRS) after bunionectomy.
Investigational Drug: Compound 1. The investigational drug was administered orally in 250 mg capsules, prepared as described in Example 2. The investigational drug was administered every 12 hours (q12 h). The first dose was 1500 mg, and the remaining doses were 750 mg.
The reference drug was administered orally in 5 mg/325 mg capsules, supplied as over-encapsulated 5 mg/325 mg tablets. The reference drug was administered in a dose of 5 mg/325 mg every 6 hours (q6 h).
After a screening period, subjects received a primary unilateral first metatarsal bunionectomy repair on Day −1. A continuous popliteal sciatic block infusion (0.2% ropivacaine) was started after surgery, and remained in place until approximately 3 AM on Day 1. After removal of the popliteal sciatic block, each subject was randomized when the subject requested the first dose of study drug for pain relief and reported pain ≥4 on the NPRS and moderate or severe pain on the VRS.
A total of 243 subjects were randomized approximately 1:1:1 to the Investigational Arm (80 subjects), Reference Arm (81 subjects), and Placebo Arm (82 subjects). To maintain the blind, all subjects received the same number of capsules in a double-dummy design.
In the Investigational Arm, Compound 1 was administered every 12 hours (q12 h) in a first dose of 1500 mg, followed by three 750 mg doses. The final dose of Compound 1 was given 36 hours after the first dose.
Compound 1 placebo capsules were administered every 12 hours (q12 h).
NPRS scores are frequently used in bunionectomy studies and are recognized by the FDA as a valid pain intensity measure. On the 11-point NPRS, a score of 0 denoted no pain, and a score of 10 denoted the worst pain intensity imaginable. Subjects reported their pain on the 11-point NPRS immediately before their first dose of the study drug (baseline NPRS score) and 0.5, 1, 1.5, 2, 3, 4, 5, 6, 8, 12, 16, 20, 24, 28, 32, 36, 40, 44, and 48 hours (±5 minutes) after the first dose of study drug. Pain intensity also was recorded on the NPRS immediately before each administration of rescue medication. Pain intensity scores that were collected within 4 hours after a dose of rescue medication were taken as missing, and the missing values were imputed as the intensity recorded immediately before the administration of rescue medication.
The primary efficacy analysis was based on an analysis of covariance (ANCOVA) model. The Least Squares (LS) mean of the time-weighted sum of the NPRS pain intensity difference, relative to baseline, from 0 to 24 hours after the first dose (“SPID24”) for each study arm is reported in Table 3. SPID24 is a standard measure of acute pain. Higher SPID24 scores represent improvements in pain relief. “Treatment difference” refers to the difference in SPID24 between the Investigational and Reference Arms, respectively, and the Placebo Arm.
The LS mean of the time-weighted sum of the NPRS pain intensity difference, relative to baseline, from 2 to 24 hours after the first dose (“SPID22”) for each study arm is reported in Table 4. The analysis was based on an analysis of covariance (ANCOVA) model. “Treatment difference” refers to the difference in SPID22 between the Investigational and Reference Arms, respectively, and the Placebo Arm.

[4] = Week 6, 1250 mg q24 h, n/Total of subjects with data at Week 6 given
[5] = oral, Compound 1 1500 mg first dose then 750 mg q12 h, HB/APAP 5 mg/325 mg q6 h, ANCOVA
[6] = relative to baseline, 24 hours after first dose, Investigational Arm 80 subjects, Reference Arm 81 subjects

Cc1cc(F)ccc1Oc1cc(C(F)(F)F)ccc1C(=O)Nc1ccn(COP(=O)(O)O)c(=O)c1 [Compound 1, (4-(2-(4-fluoro-2-methylphenoxy)-4-(trifluoromethyl)benzamido)-2-oxopyridin-1(2H)-yl)methyl dihydrogen phosphate]
Tolerability ([1]; 1500 mg then 750 mg q12 h, oral): generally well tolerated | Gastrointestinal adverse events ([1]; percentage of arm): 13% | Mean change from baseline NRS at week 6 (SE), weekly average of daily pain intensity on 11-point NRS ([2]; 1250 mg q24 h oral, 6 weeks, baseline 6.43, within-group): −2.02 (0.27) | Subjects categorized as improved on the PGIC assessment [2, 4]: 39.5% (17/43) | Subjects with ≥30% reduction in weekly average of daily pain intensity on 11-point NRS [2, 4]: 45.0% (18/40) | Subjects with ≥50% reduction in weekly average of daily pain intensity on 11-point NRS [2, 4]: 32.5% (13/40) | Mean change from baseline in weekly average of daily pain intensity (NRS), Compound 1 compared to placebo ([2]; Week 6, 1250 mg q24 h oral): −1.09 (95% CI: −1.88 to −0.29) | Mean change from baseline (SE) in weekly average of Daily Sleep Interference Scale (DSIS) score ([2]; Week 6, 1250 mg q24 h oral, baseline 5.94): −1.78 (0.28) | Treatment difference versus placebo in NRS pain intensity ([2]; as early as Week 1, 1250 mg q24 h oral): greater than 1 point | Treatment difference in SPID24 versus Placebo Arm ([3]; 0 to 24 hours after first dose, same dosing as SPID24): 29.50 | Treatment difference in SPID48 versus Placebo Arm ([3]; 0 to 48 hours after first dose): 62.79 | Treatment difference in SPID22 versus Placebo Arm ([3]; 2 to 24 hours after first dose): 28.53 | Relief of acute pain compared to placebo (SPID24) ([3]; Investigational Arm, 1500 mg then 750 mg q12 h): statistically significant relief of acute pain compared to placebo | Subjects who discontinued due to lack of efficacy ([3]; bunionectomy study, of subjects assigned to the arm): 7.5% | SPID22 (SE): LS mean of time-weighted sum of NPRS pain intensity difference, relative to baseline, 2 to 24 hours after first dose [3, 5]: 34.95 (4.93) | SPID48 (SE): LS mean of time-weighted sum of NPRS pain intensity difference, relative to baseline, 0 to 48 hours after first dose [3, 5]: 112.22 (10.57) | SPID24 (SE): LS mean of time-weighted sum of NPRS pain intensity difference, relative to baseline, 0 to 24 hours after first dose ([3]; oral, Compound 1 1500 mg first dose then 750 mg q12 h, HB/APAP 5 mg/325 mg q6 h, ANCOVA, higher = better pain relief): 36.14 (5.15) | Subjects achieving ≥30% NPRS reduction at 24 hours [3, 6]: 46 (57.5) n (%) | Subjects achieving ≥50% NPRS reduction at 24 hours [3, 6]: 41 (51.3) n (%) | Subjects achieving ≥70% NPRS reduction at 24 hours [3, 6]: 22 (27.5) n (%)
